Consider 24 compounds from patent US20260241039A1, “FLUORESCENT PROBES FOR MAGL” (Hoffmann-La Roche Inc., priority 2022, published 2026).

Usually IC50 stands for the concentration needed to halve the response being measured. A higher IC50 goes with lower potency.

The target of this assay is T1, hMAGL (Homo sapiens, UniProt Q99685).
T1 sequence (Q99685 1-303): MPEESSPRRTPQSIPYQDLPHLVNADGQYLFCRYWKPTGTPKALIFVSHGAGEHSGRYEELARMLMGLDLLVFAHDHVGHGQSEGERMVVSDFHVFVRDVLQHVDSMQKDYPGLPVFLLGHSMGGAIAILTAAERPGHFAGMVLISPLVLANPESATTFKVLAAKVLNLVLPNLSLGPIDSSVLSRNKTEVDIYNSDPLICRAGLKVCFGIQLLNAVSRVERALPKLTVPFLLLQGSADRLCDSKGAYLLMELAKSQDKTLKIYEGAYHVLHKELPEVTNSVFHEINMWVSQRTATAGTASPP
The assay can be described thus: 2-AG assay: MAGL inhibitory activity, hydrolysis of 2-arachidonoylglycerol to arachidonic acid followed by mass spectrometry. It is filed as biochemical. As to conditions: 15 min pre-incubation at RT, 30 min reaction at RT, 8 μM 2-arachidonoylglycerol. Here is the method:
Compounds were profiled for MAGL inhibitory activity by determining the enzymatic activity by following the hydrolysis of the natural substrate 2-arachidonoylglycerol (2-AG) resulting in arachidonic acid, which can be followed by mass spectrometry. This assay is hereinafter abbreviated “2-AG assay”.
The 2-AG assay was carried out in 384 well assay plates (PP, Greiner Cat #784201) in a total volume of 20 μL. Compound dilutions were made in 100% DMSO (VWR Chemicals 23500.297) in a polypropylene plate in 3-fold dilution steps to give a final concentration range in the assay from 12.5 μM to […]. 0.25 μL compound dilutions (100% DMSO) were added to 9 μL MAGL in assay buffer (50 mM TRIS (GIBCO, 15567-027), 1 mM EDTA (Fluka, 03690-100 mL), 0.01% (v/v) Tween. After shaking, the plate was incubated for 15 min at RT. To start the reaction, 10 μL 2-arachidonoylglycerol in assay buffer was added. The final concentrations in the assay was […] and 8 μM 2-arachidonoylglyerol. After shaking and 30 min incubation at RT, the reaction was quenched by the addition of 40 μL of ACN containing 4 μM of d8-arachidonic acid. The amount of arachidonic acid was traced by an online SPE system (Agilent Rapidfire) coupled to a triple quadrupole mass spectrometer (Agilent 6460). A C18 SPE cartridge (G9205A) was used in an ACN/water liquid setup. The mass spectrometer was operated in negative electrospray mode following the mass transitions 303.1→259.1 for arachidonic acid and 311.1→267.0 for d8-arachidonic acid. The activity of the compounds was calculated based on the ratio of intensities [arachidonic acid/d8-arachidonic acid].
“(4aR,8aS)-6-(7-((5,5-difluoro-5H-4λ^4, 5λ^4-dipyrrolo[1,2-c:2,1′-f][1,3,2]diazaborinin-10-yl)methylene)-2-azaspiro[3.5]nonane-2-carbonyl)hexahydro-2H-pyrido[4,3-b][1, 4]oxazin-3(4H)-one [Example 18]” came in with an IC50 of 0.64 nM.

As for “(6-((5,5-difluoro-5H-424, 5λ^4-dipyrrolo[1,2-c:2′,1′-f][1,3,2]diazaborinin-10-yl)methyl)-2-azaspiro[3.3]heptan-2-yl)(4-(5-methyloxazolo[4,5-b]pyridin-2-yl)piperazin-1-yl)methanone [Example 26]”, the 50% inhibitory concentration (IC50) was 17.2 nM.

In the case of “2-(7-((5,5-difluoro-5H-4λ^4,5λ^4-dipyrrolo[1,2-c:2′,1′-f][1,3,2]diazaborinin-10-yl)methyl)-2-azaspiro[3.5]nonane-2-carbonyl)-7-oxa-2,5-diazaspiro[3.4]octan-6-one [Example 21]”, the concentration for half-maximal inhibition (IC50) was found to be 0.69 nM.

The compound `O=C(N1CC2(CC(CC3=C4C=CC=[N+]4[B-](F)(F)n4c3ccc4-c3ccc[nH]3)C2)C1)N1CC2(CC(n3cnc(C4CC4)n3)C2)C1` [Example 31, (6-(3-cyclopropyl-1H-1,2,4-triazol-1-yl)-2-azaspiro[3.3]heptan-2-yl)(6-((5,5-difluoro-3-(1H-pyrrol-2-yl)-5H-5λ^4,6λ^4-dipyrrolo[1,2-c:2′,1′-f][1,3,2]diazaborinin-10-yl)methyl)-2-azaspiro[3.3]heptan-2-yl)methanone] gave a 50% inhibitory concentration (IC50) of 0.59 nM.

With “(4aR,8aS)-6-(2-((5,5-difluoro-5H-4λ^4, 5λ^4-dipyrrolo[1,2-c:2,1′-f][1,3,2]diazaborinin-10-yl)oxy)-7-azaspiro[3.5]nonane-7-carbonyl)hexahydro-2H-pyrido[4,3-b][1,4]oxazin-3(4H)-one [Example 12]”, the 50% inhibitory concentration (IC50) amounted to 45 nM.

As to “(4aR,8aS)-6-(7-((5,5-difluoro-5H-4λ^4, 5λ^4-dipyrrolo[1,2-c:2,1′-f][1,3,2]diazaborinin-10-yl)methyl)-2-azaspiro[3.5]nonane-2-carbonyl)hexahydro-2H-pyrido[4,3-b][1,4]oxazin-3(4H)-one [Example 19]”, the IC50 was 2.35 nM.

“(4aR,8aS)-6-(6-((5,5-difluoro-3-(1H-pyrrol-2-yl)-5H-4λ^4,5λ^4-dipyrrolo[1,2-c:2′,1′-f][1,3,2]diazaborinin-10-yl)methyl)-2-azaspiro[3.3]heptane-2-carbonyl)hexahydro-2H-pyrido[4,3-b][1,4]oxazin-3(4H)-one [Example 30]” came in with an IC50 of 0.05 nM.

Take `O=C1CO[C@H]2CCN(C(=O)N3CC4(CC(=CC5=C6C=CC=[N+]6[B-](F)(F)n6cccc65)C4)C3)C[C@H]2N1` [Example 15, (4aR,8aS)-6-(6-((5,5-difluoro-5H-4λ^4, 5λ^4-dipyrrolo[1,2-c:2,1′-f][1,3,2]diazaborinin-10-yl)methylene)-2-azaspiro[3.3]heptane-2-carbonyl)hexahydro-2H-pyrido[4,3-b][1,4]oxazin-3(4H)-one]: the IC50 was found to be 43.3 nM.

On to “2-(2-((5,5-difluoro-5H-4λ^4,5λ^4-dipyrrolo[1,2-c:2′,1′-f][1,3,2]diazaborinin-10-yl)oxy)-7-azaspiro[3.5]nonane-7-carbonyl)-7-oxa-2,5-diazaspiro[3.4]octan-6-one [Example 13]”, for which half-maximal inhibition (IC50) required 3.99 nM.

`COc1ccc2c(CN3CCN(C(=O)N4CC[C@@H]5OCC(=O)N[C@@H]5C4)CC3)cc(=O)oc2c1` [Example 5, (4aR,8aS)-6-(4-((7-methoxy-2-oxo-2H-chromen-4-yl)methyl)piperazine-1-carbonyl)hexahydro-2H-pyrido[4,3-b][1,4]oxazin-3(4H)-one] showed an IC50 of 3310 nM.

As for “(4aR,8aS)-6-(7-((5,5-difluoro-5H-4λ^4, 5λ^4-dipyrrolo[1,2-c:2,1′-f][1,3,2]diazaborinin-10-yl)oxy)-2-azaspiro[3.5]nonane-2-carbonyl)hexahydro-2H-pyrido[4,3-b][1,4]oxazin-3(4H)-one [Example 10]”, the IC50 worked out at 3.82 nM.

In the case of `O=C1COC2CCN(C(=O)N3C[C@@H]4[C@@H](COC5=C6C=CC=[N+]6[B-](F)(F)n6cccc65)[C@@H]4C3)CC2N1` (stereo partly drawn) [Example 14, (4aR,8aS)-6-((1R,5S,6R)-6-(((5,5-difluoro-5H-4λ^4,5λ^4-dipyrrolo[1,2-c:2′,1′-f][1,3,2]diazaborinin-10-yl)oxy)methyl)-3-azabicyclo[3.1.0]hexane-3-carbonyl)hexahydro-2H-pyrido[4,3-b][1,4]oxazin-3(4H)-one], the IC50 was found to be 500 nM.

“(4aR,8aS)-6-(4-((5,5-difluoro-5H-4λ^4, 5λ^4-dipyrrolo[1,2-c:2′,1′-f][1,3,2]diazaborinin-10-yl)oxy)piperidine-1-carbonyl)hexahydro-2H-pyrido[4,3-b][1,4]oxazin-3(4H)-one [Example 9]” had an IC50 of 6320 nM.

`O=C1CO[C@H]2CCN(C(=O)N3CC(COc4ccc5ccc(=O)oc5c4)C3)C[C@H]2N1` [Example 2, (4aR,8aS)-6-(3-(((2-oxo-2H-chromen-7-yl)oxy)methyl)azetidine-1-carbonyl)hexahydro-2H-pyrido[4,3-b][1,4]oxazin-3(4H)-one] registered a 50% inhibitory concentration (IC50) of 487 nM.

For the compound `O=C1CO[C@H]2CCN(C(=O)N3CC(COc4cc(=O)oc5ccccc45)C3)C[C@H]2N1` [Example 3, (4aR,8aS)-6-(3-(((2-oxo-2H-chromen-4-yl)oxy)methyl)azetidine-1-carbonyl)hexahydro-2H-pyrido[4,3-b][1,4]oxazin-3(4H)-one], half-maximal inhibition (IC50) required 667 nM.

As for “(4aR,8aS)-6-(6-((5,5-difluoro-5H-4λ^4, 5λ^4-dipyrrolo[1,2-c:2′,1′-f][1,3,2]diazaborinin-10-yl)oxy)-2-azaspiro[3.3]heptane-2-carbonyl)hexahydro-2H-pyrido[4,3-b][1,4]oxazin-3(4H)-one [Example 8]”, it took 79.3 nM to reach half-maximal inhibition (IC50).

On to “2-(6-((5,5-difluoro-5H-4λ^4,5λ^4-dipyrrolo[1,2-c:2′,1′-f][1,3,2]diazaborinin-10-yl)oxy)-2-azaspiro[3.3]heptane-2-carbonyl)-7-oxa-2,5-diazaspiro[3.4]octan-6-one [Example 11]”, for which inhibition was half-maximal at 1.76 nM (IC50).

For `NC(=O)[C@H]1CCN(C(=O)N2CC3(CC(CC4=C5C=CC=[N+]5[B-](F)(F)n5cccc54)C3)C2)C1` [Example 27, (S)-1-(6-((5,5-difluoro-5H-4λ^4,5λ^4-dipyrrolo[1,2-c:2,1′-f][1,3,2]diazaborinin-10-yl)methyl)-2-azaspiro[3.3]heptane-2-carbonyl)pyrrolidine-3-carboxamide], the IC50 is 1.98 nM.

In the case of `O=C1CO[C@H]2CCN(C(=O)N3CC4(CC(Oc5cc(=O)oc6ccccc56)C4)C3)C[C@H]2N1` [Example 4, (4aR,8aS)-6-(6-((2-oxo-2H-chromen-4-yl)oxy)-2-azaspiro[3.3]heptane-2-carbonyl)hexahydro-2H-pyrido[4,3-b][1,4]oxazin-3(4H)-one], the half-inhibitory concentration (IC50) stood at 298 nM.

“2-(6-((5,5-difluoro-5H-4λ^4,5λ^4-dipyrrolo[1,2-c:2′,1′-f][1,3,2]diazaborinin-10-yl)methylene)-2-azaspiro[3.3]heptane-2-carbonyl)-7-oxa-2,5-diazaspiro[3.4]octan-6-one [Example 22]”: the IC50 amounted to 12.6 nM.

Take `O=C1CO[C@H]2CCN(C(=O)N3CC4(CC(CC5=C6C=CC=[N+]6[B-](F)(F)n6cccc65)C4)C3)C[C@H]2N1` [Example 16, (4aR,8aS)-6-(6-((5,5-difluoro-5H-4λ^4,5λ^4-dipyrrolo[1,2-c:2,1′-f][1,3,2]diazaborinin-10-yl)methyl)-2-azaspiro[3.3]heptane-2-carbonyl)hexahydro-2H-pyrido[4,3-b][1,4]oxazin-3(4H)-one]: the IC50 was determined as 0.77 nM.

Compound “(6-(3-cyclopropyl-1H-1,2,4-triazol-1-yl)-2-azaspiro[3.3]heptan-2-yl)(6-((5,5-difluoro-5H-4λ^4,5λ^4-dipyrrolo[1,2-c:2,1′-f][1,3,2]diazaborinin-10-yl)methyl)-2-azaspiro[3.3]heptan-2-yl)methanone [Example 25]” had a half-inhibitory concentration (IC50) of 0.34 nM.

As to `O=C1CO[C@H]2CCN(C(=O)N3CCC(Nc4ccc([N+](=O)[O-])c5nonc45)CC3)C[C@H]2N1` [Example 6, (4aR,8aS)-6-(4-((7-nitrobenzo[c][1,2,5]oxadiazol-4-yl)amino)piperidine-1-carbonyl)hexahydro-2H-pyrido[4,3-b][1,4]oxazin-3(4H)-one], the midpoint of inhibition, the IC50, lay at 3810 nM.

As for “2-(7-((5,5-difluoro-5H-4λ^4,5λ^4-dipyrrolo[1,2-c:2′,1′-f][1,3,2]diazaborinin-10-yl)methylene)-2-azaspiro[3.5]nonane-2-carbonyl)-7-oxa-2,5-diazaspiro[3.4]octan-6-one [Example 20]”, the IC50 is 0.67 nM.
